Results reported in ChEMBL document CHEMBL3885881, “DrugMatrix”.

Organism: Rattus norvegicus
Assay: DrugMatrix - Regimen: Daily Repeat
Format: toxicity, organism-based, Sprague-Dawley
Design: regimen Daily Repeat, gender Male, age 6-8 weeks
Details: in vivo, iv, vehicle 100 % SALINE; for ABSOLUTE BASOPHIL / ABSOLUTE EOSINOPHIL / ABSOLUTE LYMPHOCYTE / ABSOLUTE MONOCYTE / ABSOLUTE SEGMENTED NEUTROPHIL / BASOPHIL / EOSINOPHIL / ERYTHROCYTE COUNT / HEMATOCRIT / HEMOGLOBIN / LEUKOCYTE COUNT / LYMPHOCYTE / MEAN CORPUSCULAR HEMOGLOBIN / MEAN CORPUSCULAR HEMOGLOBIN CONCENTRATION / MEAN CORPUSCULAR VOLUME / MONOCYTE / NEUTROPHIL / NUCLEATED RED BLOOD CELLS / PLATELET COUNT: tissue Blood; for ALANINE AMINOTRANSFERASE / ALBUMIN / ALKALINE PHOSPHATASE / ASPARTATE AMINOTRANSFERASE / BLOOD UREA NITROGEN / CARBON DIOXIDE / CHLORIDE / CHOLESTEROL / CREATINE PHOSPHOKINASE / CREATININE / GLUCOSE / LACTATE DEHYDROGENASE / LIPASE / PHOSPHORUS / POTASSIUM / SODIUM / TOTAL BILIRUBIN / TOTAL PROTEIN / URIC ACID: tissue Plasma
[1] = 0 mg/kg, 72 h, dose level Control, time 3 day
[2] = 0 mg/kg, 120 h, dose level Control, time 5 day
[3] = […], 72 h, dose 0.15 mg/Kg, dose level Low, time 3 day
[4] = […], 72 h, dose 1.5 mg/Kg, dose level High, time 3 day

## CCC1=C[C@@H]2CN(C1)Cc1c([nH]c3ccccc13)[C@@](C(=O)OC)(c1cc3c(cc1OC)N(C)[C@H]1[C@@](O)(C(=O)OC)[C@H](OC(C)=O)[C@]4(CC)C=CCN5CC[C@]31[C@@H]54)C2 [VINORELBINE]
[1]
  ABSOLUTE BASOPHIL: 0 CELLS/uL
  ABSOLUTE EOSINOPHIL: 15.33 CELLS/uL
  ABSOLUTE LYMPHOCYTE: 9513.5 CELLS/uL
  ABSOLUTE MONOCYTE: 94.67 CELLS/uL
  ABSOLUTE SEGMENTED NEUTROPHIL: 709.83 CELLS/uL
  BASOPHIL: 0%
  EOSINOPHIL: 0.17%
  ERYTHROCYTE COUNT: 5.63 x10E6/uL
  HEMATOCRIT: 34.63%
  HEMOGLOBIN: 13.6 G/DL
  LEUKOCYTE COUNT: 10.33 x10E3/uL
  LYMPHOCYTE: 92%
  MEAN CORPUSCULAR HEMOGLOBIN: 24.17 pg
  MEAN CORPUSCULAR HEMOGLOBIN CONCENTRATION: 39.28 G/DL
  MEAN CORPUSCULAR VOLUME: 61.57 fL
  MONOCYTE: 0.83%
  NEUTROPHIL: 7%
  NUCLEATED RED BLOOD CELLS: 0 /100WBC
  PLATELET COUNT: 903.17 x10E3/uL
  ALANINE AMINOTRANSFERASE: 49.33 u/L
  ALBUMIN: 4.27 G/DL
  ALKALINE PHOSPHATASE: 400.83 u/L
  ASPARTATE AMINOTRANSFERASE: 77.5 u/L
  BLOOD UREA NITROGEN: 16.33 mg/dL
  CARBON DIOXIDE: 29.33 mmol/L
  CHLORIDE: 99.67 MEQ/L
  CHOLESTEROL: 66.67 mg/dL
  CREATINE PHOSPHOKINASE: 275.33 u/L
  CREATININE: 0.18 mg/dL
  GLUCOSE: 163.83 mg/dL
  LACTATE DEHYDROGENASE: 125.33 u/L
  LIPASE: 10 u/L
  PHOSPHORUS: 12.12 mg/dL
  POTASSIUM: 6.68 MEQ/L
  SODIUM: 144.02 MEQ/L
  TOTAL BILIRUBIN: 0.18 mg/dL
  TOTAL PROTEIN: 5.87 G/DL
  URIC ACID: 1.63 mg/dL
[2]
  ABSOLUTE BASOPHIL: 0 CELLS/uL
  ABSOLUTE EOSINOPHIL: 48.83 CELLS/uL
  ABSOLUTE LYMPHOCYTE: 14562 CELLS/uL
  ABSOLUTE MONOCYTE: 138.67 CELLS/uL
  ABSOLUTE SEGMENTED NEUTROPHIL: 1733.83 CELLS/uL
  BASOPHIL: 0%
  EOSINOPHIL: 0.33%
  ERYTHROCYTE COUNT: 5.89 x10E6/uL
  HEMATOCRIT: 36.7%
  HEMOGLOBIN: 14.42 G/DL
  LEUKOCYTE COUNT: 16.48 x10E3/uL
  LYMPHOCYTE: 88.83%
  MEAN CORPUSCULAR HEMOGLOBIN: 24.52 pg
  MEAN CORPUSCULAR HEMOGLOBIN CONCENTRATION: 39.3 G/DL
  MEAN CORPUSCULAR VOLUME: 62.37 fL
  MONOCYTE: 0.67%
  NEUTROPHIL: 10.17%
  NUCLEATED RED BLOOD CELLS: 0 /100WBC
  PLATELET COUNT: 1076.5 x10E3/uL
  ALANINE AMINOTRANSFERASE: 44.67 u/L
  ALBUMIN: 4.23 G/DL
  ALKALINE PHOSPHATASE: 357.33 u/L
  ASPARTATE AMINOTRANSFERASE: 84.83 u/L
  BLOOD UREA NITROGEN: 15.5 mg/dL
  CARBON DIOXIDE: 27 mmol/L
  CHLORIDE: 99.5 MEQ/L
  CHOLESTEROL: 63.67 mg/dL
  CREATINE PHOSPHOKINASE: 331.33 u/L
  CREATININE: 0.18 mg/dL
  GLUCOSE: 167.33 mg/dL
  LACTATE DEHYDROGENASE: 320.17 u/L
  LIPASE: 9.17 u/L
  PHOSPHORUS: 12.05 mg/dL
  POTASSIUM: 6.54 MEQ/L
  SODIUM: 143.02 MEQ/L
  TOTAL BILIRUBIN: 0.2 mg/dL
  TOTAL PROTEIN: 6.23 G/DL
  URIC ACID: 2.07 mg/dL
[3]
  ABSOLUTE BASOPHIL: 0 CELLS/uL
  ABSOLUTE EOSINOPHIL: 49.67 CELLS/uL
  ABSOLUTE LYMPHOCYTE: 13595.67 CELLS/uL
  ABSOLUTE MONOCYTE: 462 CELLS/uL
  ABSOLUTE SEGMENTED NEUTROPHIL: 1292.67 CELLS/uL
  BASOPHIL: 0%
  EOSINOPHIL: 0.33%
  ERYTHROCYTE COUNT: 5.91 x10E6/uL
  HEMATOCRIT: 37.77%
  HEMOGLOBIN: 14.97 G/DL
  LEUKOCYTE COUNT: 15.4 x10E3/uL
  LYMPHOCYTE: 87.67%
  MEAN CORPUSCULAR HEMOGLOBIN: 25.3 pg
  MEAN CORPUSCULAR HEMOGLOBIN CONCENTRATION: 39.63 G/DL
  MEAN CORPUSCULAR VOLUME: 63.93 fL
  MONOCYTE: 3%
  NEUTROPHIL: 9%
  NUCLEATED RED BLOOD CELLS: 0 /100WBC
  PLATELET COUNT: 1301 x10E3/uL
[4]
  ABSOLUTE BASOPHIL: 0 CELLS/uL
  ABSOLUTE EOSINOPHIL: 0 CELLS/uL
  ABSOLUTE LYMPHOCYTE: 5207.33 CELLS/uL
  ABSOLUTE MONOCYTE: 23 CELLS/uL
  ABSOLUTE SEGMENTED NEUTROPHIL: 236.33 CELLS/uL
  BASOPHIL: 0%
  EOSINOPHIL: 0%
  ERYTHROCYTE COUNT: 5.25 x10E6/uL
  HEMATOCRIT: 33.27%
  HEMOGLOBIN: 13.3 G/DL
  LEUKOCYTE COUNT: 5.47 x10E3/uL
  LYMPHOCYTE: 95.33%
  MEAN CORPUSCULAR HEMOGLOBIN: 25.4 pg
  MEAN CORPUSCULAR HEMOGLOBIN CONCENTRATION: 40 G/DL
  MEAN CORPUSCULAR VOLUME: 63.43 fL
  MONOCYTE: 0.33%
  NEUTROPHIL: 4.33%
  NUCLEATED RED BLOOD CELLS: 0.33 /100WBC
  PLATELET COUNT: 808.33 x10E3/uL
